Results taken from the supplement of paper PMC10307832.

Key:
Experiment in all cases: relative viability (nuclei count vs DMSO), 5 days (fraction); higher = more cells survive
A-427 = system: A-427
In short: (§1)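 After 5 days of treatment, lung cancer cells in 1536-well plates were fixed and stained in a single step (final 0.05% Triton X-100, 1% formaldehyde, 1 ug/ml Hoechst) and their nuclei counted on 4× images. Treatment had been applied by pin tool the day after seeding as one drug alone or as a fixed anchor-drug dose with five library-drug doses (not always all listed) in √10 steps. Relative viability is the nuclei count of treated wells divided by that of vehicle wells, and values are medians of duplicate plates.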

NCI-H2087 = system: NCI-H2087
In short: as §1

NCI-H650 = system: NCI-H650
In short: as §1

HCC-78 = system: HCC-78
In short: as §1

HCC-44 = system: HCC-44
In short: as §1

EPLC-272H = system: EPLC-272H
In short: as §1

NCI-H1395 = system: NCI-H1395
In short: as §1

LOU-NH91 = system: LOU-NH91
In short: as §1

NCI-H1915 = system: NCI-H1915
In short: as §1

NCI-H2023 = system: NCI-H2023
In short: as §1

NCI-H661 = system: NCI-H661
In short: as §1

NCI-H596 = system: NCI-H596
In short: as §1

NCI-H838 = system: NCI-H838
In short: as §1

NCI-H1650 = system: NCI-H1650
In short: as §1

COR-L23 = system: COR-L23
In short: as §1

NCI-H1734 = system: NCI-H1734
In short: as §1

ChaGo-K-1 = system: ChaGo-K-1
In short: as §1

NCI-H358 = system: NCI-H358
In short: as §1

HCC-366 = system: HCC-366
In short: as §1

NCI-H3122 = system: NCI-H3122
In short: as §1

SK-MES-1 = system: SK-MES-1
In short: as §1

EKVX = system: EKVX
In short: as §1

HOP-62 = system: HOP-62
In short: as §1

O=C(O)CCCCC(CCSCc1ccccc1)SCc1ccccc1 (stereo not drawn) [CPI-613] + Nc1ncn([C@H]2C[C@H](O)[C@@H](CO)O2)c(=O)n1 [Decitabine] (partner 2 µM)
relative viability (A-427; first compound 5 µM): 0.55 | relative viability (A-427; first compound 15.81 µM): 0.551 | relative viability (A-427; first compound 50 µM): 0.582 | relative viability (A-427; first compound 158.11 µM): 0.495 | relative viability (A-427; first compound 500 µM): 0.435 | relative viability (NCI-H2087; first compound 5 µM): 0.261 | relative viability (NCI-H2087; first compound 15.81 µM): 0.218 | relative viability (NCI-H2087; first compound 50 µM): 0.221 | relative viability (NCI-H2087; first compound 158.11 µM): 0.115 | relative viability (NCI-H2087; first compound 500 µM): 0.0094 | relative viability (NCI-H650; first compound 5 µM): 0.314 | relative viability (NCI-H650; first compound 15.81 µM): 0.295 | relative viability (NCI-H650; first compound 50 µM): 0.299 | relative viability (NCI-H650; first compound 158.11 µM): 0.321 | relative viability (NCI-H650; first compound 500 µM): 0.288 | relative viability (HCC-78; first compound 15.81 µM): 0.709 | relative viability (HCC-78; first compound 50 µM): 0.836 | relative viability (HCC-78; first compound 158.11 µM): 0.691 | relative viability (HCC-78; first compound 500 µM): 0.742 | relative viability (HCC-44; first compound 5 µM): 0.877 | relative viability (HCC-44; first compound 15.81 µM): 1.01 | relative viability (HCC-44; first compound 50 µM): 0.922 | relative viability (HCC-44; first compound 158.11 µM): 0.828 | relative viability (HCC-44; first compound 500 µM): 0.779 | relative viability (EPLC-272H; first compound 5 µM): 0.358 | relative viability (EPLC-272H; first compound 15.81 µM): 0.386 | relative viability (EPLC-272H; first compound 50 µM): 0.429 | relative viability (EPLC-272H; first compound 158.11 µM): 0.343 | relative viability (EPLC-272H; first compound 500 µM): 0.319 | relative viability (NCI-H1395; first compound 5 µM): 0.667 | relative viability (NCI-H1395; first compound 15.81 µM): 0.654 | relative viability (NCI-H1395; first compound 50 µM): 0.764 | relative viability (NCI-H1395; first compound 158.11 µM): 0.675 | relative viability (NCI-H1395; first compound 500 µM): 0.597 | relative viability (LOU-NH91; first compound 5 µM): 0.794 | relative viability (LOU-NH91; first compound 15.81 µM): 0.783 | relative viability (LOU-NH91; first compound 50 µM): 0.819 | relative viability (LOU-NH91; first compound 158.11 µM): 0.765 | relative viability (LOU-NH91; first compound 500 µM): 0.683 | relative viability (NCI-H1915; first compound 5 µM): 0.272 | relative viability (NCI-H1915; first compound 15.81 µM): 0.266 | relative viability (NCI-H1915; first compound 50 µM): 0.256 | relative viability (NCI-H1915; first compound 158.11 µM): 0.235 | relative viability (NCI-H1915; first compound 500 µM): 0.114 | relative viability (NCI-H2023; first compound 5 µM): 0.215 | relative viability (NCI-H2023; first compound 15.81 µM): 0.257 | relative viability (NCI-H2023; first compound 50 µM): 0.244 | relative viability (NCI-H2023; first compound 158.11 µM): 0.0918 | relative viability (NCI-H2023; first compound 500 µM): 0.0147 | relative viability (NCI-H661; first compound 5 µM): 0.547 | relative viability (NCI-H661; first compound 15.81 µM): 0.49 | relative viability (NCI-H661; first compound 50 µM): 0.577 | relative viability (NCI-H661; first compound 158.11 µM): 0.381 | relative viability (NCI-H661; first compound 500 µM): 0.0993 | relative viability (NCI-H596; first compound 5 µM): 1.13 | relative viability (NCI-H596; first compound 15.81 µM): 0.965 | relative viability (NCI-H596; first compound 50 µM): 0.98 | relative viability (NCI-H596; first compound 158.11 µM): 0.866 | relative viability (NCI-H596; first compound 500 µM): 0.111 | relative viability (NCI-H838; first compound 5 µM): 0.449 | relative viability (NCI-H838; first compound 15.81 µM): 0.437 | relative viability (NCI-H838; first compound 50 µM): 0.386 | relative viability (NCI-H838; first compound 158.11 µM): 0.253 | relative viability (NCI-H838; first compound 500 µM): 0.104 | relative viability (NCI-H1650; first compound 5 µM): 0.475 | relative viability (NCI-H1650; first compound 15.81 µM): 0.443 | relative viability (NCI-H1650; first compound 50 µM): 0.332 | relative viability (NCI-H1650; first compound 158.11 µM): 0.169 | relative viability (NCI-H1650; first compound 500 µM): 0.0363 | relative viability (COR-L23; first compound 5 µM): 0.494 | relative viability (COR-L23; first compound 15.81 µM): 0.367 | relative viability (COR-L23; first compound 50 µM): 0.469 | relative viability (COR-L23; first compound 158.11 µM): 0.229 | relative viability (COR-L23; first compound 500 µM): 0.0175 | relative viability (NCI-H1734; first compound 5 µM): 0.488 | relative viability (NCI-H1734; first compound 15.81 µM): 0.46 | relative viability (NCI-H1734; first compound 50 µM): 0.437 | relative viability (NCI-H1734; first compound 158.11 µM): 0.409 | relative viability (NCI-H1734; first compound 500 µM): 0.111 | relative viability (ChaGo-K-1; first compound 5 µM): 0.489 | relative viability (ChaGo-K-1; first compound 15.81 µM): 0.517 | relative viability (ChaGo-K-1; first compound 50 µM): 0.514 | relative viability (ChaGo-K-1; first compound 158.11 µM): 0.274 | relative viability (ChaGo-K-1; first compound 500 µM): 0.161 | relative viability (NCI-H358; first compound 5 µM): 0.235 | relative viability (NCI-H358; first compound 15.81 µM): 0.2 | relative viability (NCI-H358; first compound 50 µM): 0.219 | relative viability (NCI-H358; first compound 158.11 µM): 0.136 | relative viability (NCI-H358; first compound 500 µM): 0.02 | relative viability (HCC-366; first compound 5 µM): 0.339 | relative viability (HCC-366; first compound 15.81 µM): 0.31 | relative viability (HCC-366; first compound 50 µM): 0.381 | relative viability (HCC-366; first compound 158.11 µM): 0.202 | relative viability (HCC-366; first compound 500 µM): 0.0146 | relative viability (NCI-H3122; first compound 5 µM): 0.344 | relative viability (NCI-H3122; first compound 15.81 µM): 0.439 | relative viability (NCI-H3122; first compound 50 µM): 0.481 | relative viability (NCI-H3122; first compound 158.11 µM): 0.376 | relative viability (NCI-H3122; first compound 500 µM): 0.185 | relative viability (SK-MES-1; first compound 5 µM): 0.422 | relative viability (SK-MES-1; first compound 15.81 µM): 0.367 | relative viability (SK-MES-1; first compound 50 µM): 0.377 | relative viability (SK-MES-1; first compound 158.11 µM): 0.19 | relative viability (SK-MES-1; first compound 500 µM): 0.103 | relative viability (EKVX; first compound 5 µM): 0.29 | relative viability (EKVX; first compound 15.81 µM): 0.348 | relative viability (EKVX; first compound 50 µM): 0.423 | relative viability (EKVX; first compound 500 µM): 0.397 | relative viability (HOP-62; first compound 5 µM): 0.186 | relative viability (HOP-62; first compound 15.81 µM): 0.235 | relative viability (HOP-62; first compound 50 µM): 0.191 | relative viability (HOP-62; first compound 158.11 µM): 0.173 | relative viability (HOP-62; first compound 500 µM): 0.0675
